Data published in patent US9968649B2, “Vasopressin formulations for use in treatment of hypotension” (Par Pharmaceutical, Inc., priority 2015, dated 2018).
Several values for one entry are separate records, joined by “and”; a condition that tells them apart may be missing. Identical values can stand only once.

Test: Effect of temperature on vasopressin formulations: HPLC vasopressin assay and impurities on storage (Example 8)
Type: physicochemical
Description: To analyze degradation products of vasopressin that can be present in an illustrative formulation of vasopressin, gradient HPLC was performed to separate vasopressin from related peptides and formulation components. TABLE 2 below depicts the results of the experiment detailing the chemical formula, relative retention time (RRT), molar mass, and structure of vasopressin and detected impurities.
Vasopressin was detected in the eluent using UV absorbance. The concentration of vasopressin in the sample was determined by the external standard method, where the peak area of vasopressin in sample injections was compared to the peak area of vasopressin reference standards in a solution of known concentration. The concentrations of related peptide impurities in the sample were also determined using the external standard method, using the vasopressin reference standard peak area and a unit relative response factor. An impurities marker solution was used to determine the relative retention times of identified related peptides at the time of analysis.
To test the effect of temperature on the stability of vasopressin formulation, solutions containing 20 units/mL vasopressin and chlorobutanol, adjusted to pH 3.5 with acetic acid, were prepared. One mL of each vasopressin formulations was then filled into 3 cc vials. Each Vasopressin Formulation was stored either inverted or upright for at least three months, up to 24 months, at: (i) 5° C.; (ii) 25° C. and 60% relative humidity; or (iii) 40° C. and 75% humidity, and the amount of vasopressin (U/mL) and % total impurities were measured periodically. TABLES 7-12 below display the results of the experiments at 5° C. The results of the experiments at 25° C. are included in TABLES 13-18. All of the experiments were performed in triplicate. The results of the experiments at 40° C. are included in TABLES 19-24. For each temperature tested, three lots of the vasopressin formulation were stored for 24 months (5° C. and 25° C.) and 3 months (40° C.), and measurements were taken at regular intervals during the testing periods. “NMT” as used in the tables denotes “not more than.”
Experiments were also conducted on the same samples above over the course of the experiments to measure the amount of individual impurities in the samples, pH of the samples, chlorobutanol content, particulate matter, antimicrobial effectiveness, and bacterial endotoxin levels (TABLES 25-42). (NR=no reading; ND=not determined; UI=unidentified impurity).

[1] = inverted, 5° C., Initial, listed as AVP
[2] = inverted, 25° C. and 60% Relative Humidity, 3 months, listed as AVP
[3] = inverted, 25° C. and 60% Relative Humidity, 6 months, listed as AVP
[4] = inverted, 25° C. and 60% Relative Humidity, 9 months, listed as AVP
[5] = inverted, 25° C. and 60% Relative Humidity, 12 months, listed as AVP
[6] = inverted, 25° C. and 60% Relative Humidity, 24 months, listed as AVP
[7] = inverted, 25° C. and 60% Relative Humidity, Initial, listed as AVP
[8] = inverted, 40° C. (75% humidity), 1 month
[9] = inverted, 40° C. (75% humidity), 2 months
[10] = inverted, 40° C. (75% humidity), 3 months
[11] = inverted, 40° C. (75% humidity), Initial
[12] = upright, 5° C., 1 month, listed as AVP
[13] = upright, 5° C., 2 months, listed as AVP
[14] = upright, 5° C., 3 months, listed as AVP
[15] = upright, 5° C., 6 months, listed as AVP
[16] = upright, 5° C., 9 months, listed as AVP
[17] = upright, 5° C., 12 months, listed as AVP
[18] = upright, 5° C., 18 months, listed as AVP
[19] = upright, 5° C., 24 months, listed as AVP
[20] = upright, 5° C., Initial, listed as AVP
[21] = upright, 25° C. and 60% Relative Humidity, 3 months, listed as AVP
[22] = upright, 25° C. and 60% Relative Humidity, 6 months, listed as AVP
[23] = upright, 25° C. and 60% Relative Humidity, 9 months, listed as AVP
[24] = upright, 25° C. and 60% Relative Humidity, 12 months, listed as AVP
[25] = upright, 25° C. and 60% Relative Humidity, 18 months, listed as AVP
[26] = upright, 25° C. and 60% Relative Humidity, 24 months, listed as AVP
[27] = upright, 25° C. and 60% Relative Humidity, Initial, listed as AVP

SMILES: NC(=O)CC[C@@H]1NC(=O)[C@H](Cc2ccccc2)NC(=O)[C@H](Cc2ccc(O)cc2)NC(=O)[C@@H](N)CSSC[C@@H](C(=O)N2CCC[C@H]2C(=O)N[C@@H](CCCN=C(N)N)C(=O)NCC(N)=O)NC(=O)[C@H](CC(N)=O)NC1=O [Vasopressin, Cyclo (1-6) L-Cysteinyl-L-Tyrosyl-L-Phenylalanyl-L-Glutaminyl-L-Asparaginyl-L-Cysteinyl-L-Prolyl-L-Arginyl-L-Glycinamide]
- Related Substances: Acetyl-AVP (inverted, 5° C., Initial): 0.3%
- Related Substances: Asp5-AVP (inverted, 5° C., Initial): 0.1%
- Related Substances: SEQ ID NO.: 2 (inverted, 5° C., Initial): 0.5% and 0.6%
- Related Substances: SEQ ID NO.: 4 (inverted, 5° C., Initial): 0.6% and 0.5%
- Related Substances: SEQ ID NO.: 10 (inverted, 5° C., Initial): 0.3%
- Related Substances: UI-0.75-0.78 (inverted, 5° C., Initial): 0.2%
- Related Substances: UI-0.83-0.84 (inverted, 5° C., Initial): 0.1%
- Related Substances: UI-1.02-1.03 (inverted, 5° C., Initial): 0.2%
- Related Substances: UI-1.03 (inverted, 5° C., Initial): 0.2%
- Related Substances: UI-1.85 (inverted, 5° C., Initial): 0.2%
- Related Substances: UI-2.05 (inverted, 5° C., Initial): 0.1% and 0.2%
- Vasopressin (AVP) Assay (inverted, 5° C., Initial): 19.4 U/mL and 19.7 U/mL
- Total Impurities [1]: 2.3% and 2.7% and 2.2%
- Vasopressin (AVP) Assay [1]: 19.4 U/mL and 19.7 U/mL
- AVP Assay [2]: 19.4 U/mL and 19.7 U/mL and 19.6 U/mL
- Total Impurities [2]: 2.4% and 2.5% and 2.6%
- AVP Assay [3]: 19.1 U/mL and 19.3 U/mL and 19.2 U/mL
- Total Impurities [3]: 3.7% and 3.4% and 3.3%
- AVP Assay [4]: 18.8 U/mL and 19 U/mL
- Total Impurities [4]: 4.7% and 4.6%
- AVP Assay [5]: 18.3 U/mL and 18.6 U/mL and 18.7 U/mL
- Total Impurities [5]: 5.9% and 5.6%
- Total Impurities (inverted, 25° C. and 60% Relative Humidity, 18 months): 9.0%
- AVP Assay (inverted, 25° C. and 60% Relative Humidity, 18 months, listed as AVP): 17.5 U/mL and 17.6 U/mL and 18 U/mL
- AVP Assay [6]: 17.3 U/mL and 17.6 U/mL and 17.4 U/mL
- Total Impurities [6]: 13.6% and 13.4% and 12.9%
- AVP Assay [7]: 19.8 U/mL and 20.1 U/mL and 19.9 U/mL
- Total Impurities [7]: 1.1% and 1.3% and 1.5%
- Total Impurities [8]: 3.7% and 3.6%
- Vasopressin Assay [8]: 19.1 U/mL and 19.3 U/mL and 19.2 U/mL
- Total Impurities [9]: 7.3%
- Vasopressin Assay [9]: 18.6 U/mL and 18.7 U/mL and 18.3 U/mL
- Total Impurities [10]: 10.6% and 10.3%
- Vasopressin Assay [10]: 17.3 U/mL and 17.6 U/mL and 17.4 U/mL
- Total Impurities [11]: 1.1% and 1.3%
- Vasopressin Assay [11]: 19.8 U/mL and 20.1 U/mL and 19.9 U/mL
- Related Substances: Acetyl-AVP (inverted, 40° C., 1 month): 0.2%
- Related Substances: Asp5-AVP (inverted, 40° C., 1 month): 0.2%
- Related Substances: D-Asn-AVP (inverted, 40° C., 1 month): 0.4%
- Related Substances: SEQ ID NO.: 2 (inverted, 40° C., 1 month): 1.0%
- Related Substances: SEQ ID NO.: 4 (inverted, 40° C., 1 month): 1.1%
- Related Substances: UI-0.13 (inverted, 40° C., 1 month): 0.1%
- Related Substances: UI-1.02-1.03 (inverted, 40° C., 1 month): 0.3%
- Related Substances: UI-1.56-1.57 (inverted, 40° C., 1 month): 0.2%
- Related Substances: UI-1.93 (inverted, 40° C., 1 month): 0.1%
- Related Substances: Acetyl-AVP (inverted, 40° C., 2 months): 0.2%
- Related Substances: Asp5-AVP (inverted, 40° C., 2 months): 0.5%
- Related Substances: D-Asn-AVP (inverted, 40° C., 2 months): 0.3%
- Related Substances: SEQ ID NO.: 2 (inverted, 40° C., 2 months): 2.4%
- Related Substances: SEQ ID NO.: 4 (inverted, 40° C., 2 months): 2.7%
- Related Substances: UI-1.02-1.03 (inverted, 40° C., 2 months): 0.2%
- Related Substances: UI-1.56-1.57 (inverted, 40° C., 2 months): 0.4%
- Related Substances: UI-1.83-1.85 (inverted, 40° C., 2 months): 0.2%
- Related Substances: UI-1.87-1.88 (inverted, 40° C., 2 months): 0.2%
- Related Substances: UI-2.05-2.08 (inverted, 40° C., 2 months): 0.2%
- Related Substances: Acetyl-AVP (inverted, 40° C., 3 months): 0.2%
- Related Substances: Asp5-AVP (inverted, 40° C., 3 months): 0.8%
- Related Substances: D-Asn-AVP (inverted, 40° C., 3 months): 0.3%
- Related Substances: SEQ ID NO.: 2 (inverted, 40° C., 3 months): 3.8%
- Related Substances: SEQ ID NO.: 4 (inverted, 40° C., 3 months): 4.3%
- Related Substances: UI-1.02-1.03 (inverted, 40° C., 3 months): 0.3%
- Related Substances: UI-1.18 (inverted, 40° C., 3 months): 0.2%
- Related Substances: UI-1.56-1.57 (inverted, 40° C., 3 months): 0.4%
- Related Substances: UI-1.83-1.85 (inverted, 40° C., 3 months): 0.2%
- Related Substances: UI-1.87-1.88 (inverted, 40° C., 3 months): 0.2%
- Related Substances: Acetyl-AVP (inverted, 40° C., Initial): 0.3%
- Related Substances: D-Asn-AVP (inverted, 40° C., Initial): 0.3%
- Related Substances: SEQ ID NO.: 2 (inverted, 40° C., Initial): 0.1%
- Related Substances: SEQ ID NO.: 4 (inverted, 40° C., Initial): 0.1%
- Related Substances: UI-1.02-1.03 (inverted, 40° C., Initial): 0.2%
- AVP Assay [12]: 19.5 U/mL and 19.7 U/mL
- Total Impurities [12]: 2.1% and 1.8%
- AVP Assay [13]: 19.4 U/mL and 19.6 U/mL
- Total Impurities [13]: 2.1% and 2.2% and 2.0%
- AVP Assay [14]: 19.4 U/mL and 19.7 U/mL
- Total Impurities [14]: 2.3% and 2.2%
- AVP Assay [15]: 19.5 U/mL and 19.8 U/mL
- Total Impurities [15]: 2.1% and 2.2%
- AVP Assay [16]: 19.5 U/mL and 19.7 U/mL
- Total Impurities [16]: 2.3% and 2.1%
- AVP Assay [17]: 19.5 U/mL and 19.8 U/mL and 19.9 U/mL
- Total Impurities [17]: 2.5% and 2.6% and 2.4%
- AVP Assay [18]: 19.4 U/mL and 19.7 U/mL and 19.8 U/mL
- Total Impurities [18]: 2.9% and 2.8%
- AVP Assay [19]: 19.3 U/mL and 19.5 U/mL
- Total Impurities [19]: 2.9% and 2.8% and 2.7%
- AVP Assay [20]: 19.4 U/mL and 19.7 U/mL
- Total Impurities [20]: 2.3% and 2.7% and 2.2%
- AVP Assay [21]: 19.4 U/mL and 19.7 U/mL and 19.6 U/mL
- Total Impurities [21]: 2.4% and 2.5%
- AVP Assay [22]: 19.1 U/mL and 19.4 U/mL and 19.2 U/mL
- Total Impurities [22]: 3.2% and 3.3% and 3.7%
- AVP Assay [23]: 18.8 U/mL and 18.9 U/mL and 19 U/mL
- Total Impurities [23]: 4.8% and 4.5% and 4.7%
- AVP Assay [24]: 18.3 U/mL and 18.6 U/mL and 18.5 U/mL
- Total Impurities [24]: 5.6% and 5.7% and 5.9%
- AVP Assay (upright, 25° C. and 60% Relative Humidity, 18 months): 18.1 U/mL
- AVP Assay [25]: 17.5 U/mL and 17.8 U/mL
- Total Impurities [25]: 9.2% and 9.1%
- Total Impurities (upright, 25° C. and 60% Relative Humidity, 24 months): 13.3%
- AVP Assay [26]: 17.4 U/mL and 17.7 U/mL
- Total Impurities [26]: 13.1%
- AVP Assay [27]: 19.8 U/mL and 20.1 U/mL and 19.9 U/mL
- Total Impurities [27]: 1.1% and 1.3% and 1.5%
